Reference: patent publication US8008292B2, “Condensed benzamide compounds and inhibitors of vanilloid receptor subtype 1 (VR1) activity” (Japan Tobacco Inc., priority 2004, dated 2011)

These compounds were tested against T1, human VR1 (Homo sapiens, UniProt Q8NER1) (assay: Inhibition of Ca2+ entry in cells caused by proton, in rat glioma (C6BU1) cells stably expressing human VR1 (Fura 2 fluorescence)). Conditions: inhibition of proton-induced Ca2+ entry.
T1 construct: expressed in transfected cells
T1 sequence (Q8NER1 whole entry): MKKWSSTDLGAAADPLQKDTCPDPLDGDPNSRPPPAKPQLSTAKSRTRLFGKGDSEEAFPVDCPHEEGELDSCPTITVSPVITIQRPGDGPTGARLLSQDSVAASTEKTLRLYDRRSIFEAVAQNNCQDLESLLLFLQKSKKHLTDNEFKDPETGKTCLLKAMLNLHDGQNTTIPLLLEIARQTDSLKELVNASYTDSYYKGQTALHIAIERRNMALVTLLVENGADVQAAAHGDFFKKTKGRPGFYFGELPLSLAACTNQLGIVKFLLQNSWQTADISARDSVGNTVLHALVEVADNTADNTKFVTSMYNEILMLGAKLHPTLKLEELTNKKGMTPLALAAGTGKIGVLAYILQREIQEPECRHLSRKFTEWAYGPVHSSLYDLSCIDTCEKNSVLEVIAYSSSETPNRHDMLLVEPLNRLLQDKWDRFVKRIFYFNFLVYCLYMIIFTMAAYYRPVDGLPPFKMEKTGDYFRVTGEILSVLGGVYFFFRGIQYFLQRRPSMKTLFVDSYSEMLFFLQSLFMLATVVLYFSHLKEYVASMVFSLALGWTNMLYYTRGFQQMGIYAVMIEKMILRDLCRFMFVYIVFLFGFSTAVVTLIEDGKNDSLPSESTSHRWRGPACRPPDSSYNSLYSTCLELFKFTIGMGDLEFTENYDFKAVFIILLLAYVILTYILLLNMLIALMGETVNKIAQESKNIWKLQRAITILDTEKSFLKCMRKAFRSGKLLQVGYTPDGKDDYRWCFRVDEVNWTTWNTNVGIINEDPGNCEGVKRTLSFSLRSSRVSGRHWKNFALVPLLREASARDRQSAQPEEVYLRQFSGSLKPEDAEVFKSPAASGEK
Type: cell-based
Procedure, shortened: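 Fura 2-loaded C6BU1 cells in 20 mM MES buffer pH 6.8 with added Ca2+ were preincubated 10 min with compound (final 1 μM to 0.1 nM, 1% DMSO). Proton stimulation brought pH to 5.5. Fluorescence rise was measured, and IC50 was derived from % inhibition versus DMSO control.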

| Compound | IC50 [nM] |
| --- | --- |
| O=C(Nc1ccc(C(F)(F)F)cc1)c1cccc2c1OCCN2c1ncc(F)cc1F [Example 1-150] | < 100 |
| CC(C)Oc1cccc(NC(=O)c2cccc3c2OCCN3c2ncccc2Cl)c1 [Example 1-044] | < 100 |
| CC(C)(C)c1ccc(NC(=O)c2cccc3c2OCCN3c2ncccc2Cl)cc1 [Example 1-001, N-(4-tert-butylphenyl)-4-(3-chloropyridin-2-yl)-3,4-dihydro-2H-benzo[1,4]oxazine-8-carboxamide] | < 100 |
| Cc1ccc(N2CCOc3c(C(=O)N[C@H]4CC[C@H](C(C)C)CC4)cccc32)nc1 [Example 1-191] | < 100 |
| Cc1ccc(N2c3cccc(C(=O)Nc4ccc(OC(C)C)c(C(F)(F)F)c4)c3OC[C@@H]2CO)nc1 [Example 4-38] | < 100 |
| O=C(Nc1ccc(Cl)c(C(F)(F)F)c1)c1cccc2c1OCCN2c1ncccc1Cl [Example 1-025] | < 100 |
| CC(C)(C)c1ccc(NC(=O)c2cccc3c2OCCN3c2ncc(CO)cc2Cl)cc1 [Example 2-36] | < 100 |
| Cc1ccc(N2CCOc3c(C(=O)NCCc4ccccc4)cccc32)nc1 [Example 1-124] | < 100 |
| CN(C)c1ccc(NC(=O)c2cccc3c2OC[C@H](CO)N3c2ncccc2Cl)cc1C(F)(F)F [Example 4-20] | < 100 |
| CC1(C)CN(c2ncccc2Cl)c2cccc(C(=O)Nc3ccc(C(C)(C)C)cc3)c2O1 [Example 1-018] | 100 to 1000 |
| Cc1ccc(N2CCOc3c(C(=O)Nc4ccc(N5CCCCC5)c(F)c4)cccc32)nc1 [Example 1-156] | < 100 |
| CC(C)c1ccc(NC(=O)c2cccc3c2OCCN3c2ncc(CO)cc2Cl)cc1 [Example 2-46] | < 100 |
| O=C(Nc1ccc(OC(F)(F)F)c(Cl)c1)c1cccc2c1OC[C@H](CO)N2c1ncccc1Cl [Example 4-11] | < 100 |
| CC(C)OC1CCN(c2ccc(NC(=O)c3cccc4c3OCCN4c3ncccc3Cl)cc2F)CC1 [Example 1-103] | < 100 |
| CC(=O)c1ccc(NC(=O)c2cccc3c2OCCN3c2ncccc2Cl)cc1 [Example 1-039, N-(4-acetylphenyl)-4-(3-chloropyridin-2-yl)-3,4-dihydro-2H-benzo[1,4]oxazine-8-carboxamide] | 100 to 1000 |
| O=C(Nc1ccc(Br)c(Cl)c1)c1cccc2c1OCCN2c1ncc(CO)cc1Cl [Example 2-17] | < 100 |
| COCc1ccc(N2CCOc3c(C(=O)Nc4ccc(C(C)(C)C)cc4)cccc32)nc1 [Example 1-194] | < 100 |
| CC(C)(C)c1ccc(NC(=O)c2cc(Cl)cc3c2OCCN3c2ncccc2Cl)cc1 [Example 1-020] | < 100 |
| COc1ccc(NC(=O)c2cccc3c2OCCN3c2ccc(C)cn2)cc1F [Example 1-159] | < 100 |
| Cc1ccc(N2CCOc3c(C(=O)Nc4ccc(OCC(C)(C)O)cc4)cccc32)nc1 [Example 1-155] | < 100 |
| O=C(Nc1ccc(OC(F)(F)F)cc1)c1cccc2c1OCCN2c1ncccc1OCc1ccccc1 [Example 1-209] | < 100 |
| COc1ccc(N2c3cccc(C(=O)Nc4ccc(C(F)(F)F)cc4)c3OC[C@@H]2CO)cc1 [Example 7-09] | < 100 |
| Cc1ccc(N2CCOc3c(C(=O)Nc4ccc(N(C)C)c(F)c4)cccc32)nc1 [Example 1-163] | < 100 |
| COC1CCCN(c2ccc(NC(=O)c3cccc4c3OCCN4c3ccc(C)cn3)cc2F)C1 (stereo not shown) [Example 1-070] | < 100 |
| O=C(N[C@H]1CC[C@H](OC2CCCCC2)CC1)c1cccc2c1OCCN2c1ncccc1Cl [Example 1-099] | 100 to 1000 |

| Compound | IC50 [nM] |
| --- | --- |
| COc1ccc(N2CCOc3c(C(=O)Nc4ccc(C(C)(C)C)cc4)cccc32)cc1 [Example 7-01, N-(4-tert-butylphenyl)-4-(4-methoxyphenyl)-3,4-dihydro-2H-benzo[1,4]oxazine-8-carboxamide] | < 100 |
| Cc1ccc(N2c3cccc(C(=O)Nc4ccc(C(F)(F)F)nc4)c3OC[C@@H]2CO)nc1 [Example 4-27] | < 100 |
| CCOc1ccc(N2CCOc3c(C(=O)Nc4ccc(OC(F)(F)F)cc4)cccc32)nc1 [Example 1-198] | 100 to 1000 |
| Cc1ccc(N2CCOc3c(C(=O)N[C@H]4CC[C@H](COC(C)(C)C)CC4)cccc32)nc1 [Example 1-186] | < 100 |
| O=C(Nc1ccc(N2CCCCC2)c(F)c1)c1cccc2c1OCCN2c1ncc(CO)cc1Cl [Example 2-35] | < 100 |
| CC(C)Oc1ccc(NC(=O)c2cccc3c2OCCN3c2ncc(CO)cc2Cl)cc1F [Example 2-34] | < 100 |
| CNC(=O)c1cc(NC(=O)c2cccc3c2OCCN3c2ccc(C)cn2)ccc1OCC(C)C [Example 1-076] | 100 to 1000 |
| Cc1ccc(N2CCOc3c(C(=O)NCCc4cccc(Cl)c4)cccc32)nc1 [Example 1-126] | < 100 |
| Cc1ccc(N2CCOc3c(C(=O)Nc4ccc(C)c(OCCO)c4)cccc32)nc1 [Example 1-173] | < 100 |
| COc1cnc(N2c3cccc(C(=O)Nc4ccc(OC(F)(F)F)cc4)c3OC[C@@H]2CO)c(Cl)c1 [Example 4-26] | < 100 |
| CC1CN(c2ncccc2Cl)c2cccc(C(=O)Nc3ccc(C(C)(C)C)cc3)c2O1 (stereo not shown) [Example 1-019] | 100 to 1000 |
| CCCOc1ccc(NC(=O)c2cccc3c2OCCN3c2ccc(C)cn2)cc1F [Example 1-085] | < 100 |
| O=C(Nc1ccc(OC(F)(F)F)cc1)c1cccc2c1OC[C@H](CO)N2c1ccc(Cl)cn1 [Example 4-05, (S)-4-(5-chloropyridin-2-yl)-3-hydroxylmethyl-N-(4-trifluoromethoxyphenyl)-3,4-dihydro-2H-benzo[1,4]oxazine-8-carboxamide] | < 100 |
| CCOc1ccc(NC(=O)c2cccc3c2OCCN3c2ncccc2Cl)cc1 [Example 1-094] | < 100 |
| COc1ccc(N2CCOc3c(C(=O)Nc4ccc(OC(F)(F)F)cc4)cccc32)nc1 [Example 1-202] | < 100 |
| CC(C)(C)c1ccc(NC(=O)c2cccc3c2OCCCN3c2ncccc2Cl)cc1 [Example 1-005, N-(4-tert-butylphenyl)-9-(3-chloropyridin-2-yl)-6,7,8,9-tetrahydro-5-oxa-9-aza-benzocycloheptene-4-carboxamide] | < 100 |
| Cc1ccc(N2CCOc3c(C(=O)N[C@H]4CC[C@H](OC(C)C)CC4)cccc32)nc1 [Example 1-106] | 100 to 1000 |
| O=C(Nc1ccc(C(F)(F)F)cc1)c1cccc2c1OCCN2c1ccc(Cl)nn1 [Example 5-4, 4-(6-chloropyridazine-3-yl)-N-(4-trifluoromethylphenyl)-3,4-dihydro-2H-benzo[1,4]oxazine-8-carboxamide] | < 100 |
| CCOC(=O)C1CCN(c2ccc(NC(=O)c3cccc4c3OCCN4c3ccc(C)cn3)cc2F)CC1 [Example 1-167] | < 100 |
| Cc1cccnc1N1c2cccc(C(=O)Nc3ccc(OCC(C)C)c(F)c3)c2OC[C@@H]1CO [Example 4-44] | < 100 |
| Cc1ccc(N2c3cccc(C(=O)Nc4ccc(Cl)cc4)c3OC[C@@H]2CO)nc1 [Example 4-48] | < 100 |
| CC(C)Oc1ccc(NC(=O)c2cccc3c2OC[C@H](CO)N3c2ncccc2Cl)cc1F [Example 4-09] | < 100 |
| O=C(Nc1ccc(Cl)c(Cl)c1)c1cccc2c1OCCN2c1ncc(CO)cc1Cl [Example 2-40] | < 100 |
| O=C(Nc1ccc(F)c(C(F)(F)F)c1)c1cccc2c1OCCN2c1ncccc1Cl [Example 1-053] | < 100 |
